According to patent US9353090B2, “Heterocyclic carboxylic acids as activators of soluble guanylate cyclase” (Boehringer Ingelheim International GmbH, priority 2014, dated 2016):
In brackets after ≈: the same amount, converted by molar mass.

Assays:
[1] = target: human soluble guanylate cyclase alpha 1 and beta 1 subunits (sGC) (Homo sapiens (Human), UniProt Q02108+Q02153); test: sGC cellular activator assay (cGMP, HTRF), in the presence and absence of 50% human serum; assay type: cell-based; conditions: CHO cells stably expressing human sGC alpha 1/beta 1, preincubated with 40 microM ODQ; cGMP by HTRF; Table 2 does not state whether with or without 50% human serum
Outline: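 First, CHO-sGC (human α1β1) cells get 1 h ODQ at 40 microM with IBMX and 0.1% BSA. Finally, cGMP is quantified by HTRF and EC50 computed.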

[2] = Human liver microsome (HLM) metabolic stability assay; assay type: in vitro ADME; conditions: human liver microsomes
Outline: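 Remaining parent measured by LC/MS/MS (ESI, MRM) at 5, 15, 30 and 60 min relative to 0 min. Incubation: 1 uM compound, HLMs, NADPH-started, 37° C., 60 min total, single replicate. Slope of ln(% remaining) gives t1/2 = 0.693/slope, then CLint, CLh and % Qh.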

physchem = conditions: kinetic from dmso stock
[3] = pH 2.2, aqueous buffer, Solubility (pH 2.2)
[4] = pH 4.5, aqueous buffer, Solubility (pH 4.5)
[5] = pH 6.8, aqueous buffer, Solubility (pH 6.8)

human soluble guanylate cyclase alpha 1 and beta 1 subunits (sGC), sequence (Q02108 whole entry partner): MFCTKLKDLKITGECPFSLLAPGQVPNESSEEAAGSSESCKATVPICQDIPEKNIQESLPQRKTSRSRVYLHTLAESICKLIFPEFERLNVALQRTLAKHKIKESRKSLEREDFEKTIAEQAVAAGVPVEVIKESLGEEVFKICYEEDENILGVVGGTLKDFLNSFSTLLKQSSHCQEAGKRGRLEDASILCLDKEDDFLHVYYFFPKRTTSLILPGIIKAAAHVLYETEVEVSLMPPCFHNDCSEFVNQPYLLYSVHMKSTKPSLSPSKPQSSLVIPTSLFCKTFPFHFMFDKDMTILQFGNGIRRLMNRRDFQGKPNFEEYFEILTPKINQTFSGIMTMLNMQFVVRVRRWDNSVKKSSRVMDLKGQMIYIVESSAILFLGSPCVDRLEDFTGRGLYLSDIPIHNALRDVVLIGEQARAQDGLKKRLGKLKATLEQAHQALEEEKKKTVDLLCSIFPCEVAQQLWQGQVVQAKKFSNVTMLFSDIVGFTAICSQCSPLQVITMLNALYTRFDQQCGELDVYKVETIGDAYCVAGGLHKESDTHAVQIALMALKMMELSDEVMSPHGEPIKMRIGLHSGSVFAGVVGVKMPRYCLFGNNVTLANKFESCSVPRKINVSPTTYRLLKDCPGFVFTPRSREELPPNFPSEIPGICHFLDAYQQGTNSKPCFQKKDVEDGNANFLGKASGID
human soluble guanylate cyclase alpha 1 and beta 1 subunits (sGC), sequence (Q02153 whole entry): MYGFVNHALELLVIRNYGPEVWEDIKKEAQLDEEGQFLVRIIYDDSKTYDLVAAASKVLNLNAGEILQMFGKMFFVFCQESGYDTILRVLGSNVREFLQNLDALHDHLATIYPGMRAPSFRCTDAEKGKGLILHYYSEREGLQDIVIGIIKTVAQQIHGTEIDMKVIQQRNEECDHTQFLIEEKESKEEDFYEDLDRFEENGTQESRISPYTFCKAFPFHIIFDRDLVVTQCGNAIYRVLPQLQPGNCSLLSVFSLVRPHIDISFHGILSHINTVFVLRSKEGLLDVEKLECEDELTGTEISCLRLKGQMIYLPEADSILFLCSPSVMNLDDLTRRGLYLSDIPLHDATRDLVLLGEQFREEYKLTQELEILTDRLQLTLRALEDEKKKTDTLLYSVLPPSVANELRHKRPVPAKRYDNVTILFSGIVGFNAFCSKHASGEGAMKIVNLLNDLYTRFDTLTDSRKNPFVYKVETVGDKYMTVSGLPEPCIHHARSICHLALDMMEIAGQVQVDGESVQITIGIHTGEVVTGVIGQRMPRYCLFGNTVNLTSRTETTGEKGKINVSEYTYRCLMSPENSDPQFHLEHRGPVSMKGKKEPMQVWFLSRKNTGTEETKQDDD

| SMILES | EC50 [1] [nM] | Metabolic stability (Qh %), % hepatic blood flow [2] [%] | solubility at 24 h (physchem; [3]) [µg/mL] | solubility at 24 h (physchem; [4]) [µg/mL] | solubility at 24 h (physchem; [5]) [µg/mL] |
| --- | --- | --- | --- | --- | --- |
| Cc1cc(COc2c(C)cccc2-c2csc(N3CC[C@@]4(C(=O)O)C[C@H]4C3)n2)c(C)c2c1CN(C1CCOCC1)CC2 [Compound 101] | 3 | 61 | 120 (≈ 204 µM) | 79 (≈ 134 µM) | 38 (≈ 64.6 µM) |
| Cc1cc(COc2c(C)cccc2-c2csc(N3CC[C@@]4(C(=O)O)C[C@H]4C3)n2)c(C)c2c1CN(C1COC1)CC2 [Compound 102] | 3 | 52 | 130 (≈ 232 µM) | 41 (≈ 73.2 µM) | 54 (≈ 96.5 µM) |
| Cc1cccc(-c2csc(N3CC[C@@]4(C(=O)O)C[C@H]4C3)n2)c1OCc1ccc2c(c1C)CCN(C1CCOC1)CC2 (some centres unmarked) [Compound 106] | 5 | 39 | 130 (≈ 227 µM) | 66 (≈ 115 µM) | 44 (≈ 76.7 µM) |
| Cc1ccc(OCc2ccc3c(c2)CCN(C2CCOCC2)C3)c(-c2csc(N3CC[C@@]4(C(=O)O)C[C@H]4C3)n2)c1 [Compound 110] | 17 | <24 | 110 (≈ 197 µM) | 54 (≈ 96.5 µM) | 0.58 (≈ 1.04 µM) |
| Cc1ccc(OCc2ccc3c(c2)CCN(CC2COCCO2)C3)c(-c2csc(N3CC[C@@]4(C(=O)O)C[C@H]4C3)n2)c1 (some centres unmarked) [Compound 112] | 2 | <24 | 120 (≈ 208 µM) | 55 (≈ 95.5 µM) | 8.1 (≈ 14.1 µM) |
| Cc1ccc(OCc2ccc3c(c2)CCN(C2CCCOC2)C3)c(-c2csc(N3CC[C@@]4(C(=O)O)C[C@H]4C3)n2)c1 (some centres unmarked) [Compound 113] | 5 | <24 | 130 (≈ 232 µM) | 36 (≈ 64.3 µM) | 2.7 (≈ 4.82 µM) |
| Cc1ccc(OCc2ccc3c(c2C)CCN(C2CCOCC2)C3)c(-c2csc(N3CC[C@@]4(C(=O)O)C[C@H]4C3)n2)c1 [Compound 115] | 11 | <24 | 130 (≈ 227 µM) | 36 (≈ 62.7 µM) | 5.1 (≈ 8.89 µM) |
| Cc1ccc(OCc2ccc3c(c2C)CCN(C2COC2)C3)c(-c2csc(N3CC[C@@]4(C(=O)O)C[C@H]4C3)n2)c1 [Compound 116] | 35 | <24 | 140 (≈ 257 µM) | 11 (≈ 20.2 µM) | 6 (≈ 11 µM) |
| Cc1ccc(OCc2ccc3c(c2C)CCN(CC2COCCO2)C3)c(-c2csc(N3CC[C@@]4(C(=O)O)C[C@H]4C3)n2)c1 (some centres unmarked) [Compound 117] | 2 | 27 | 120 (≈ 203 µM) | 42 (≈ 71.2 µM) | 3.4 (≈ 5.77 µM) |
| Cc1ccc(OCc2ccc3c(c2C)CCN(C2CCOC2)C3)c(-c2csc(N3CC[C@@]4(C(=O)O)C[C@H]4C3)n2)c1 (some centres unmarked) [Compound 119] | 3 | <24 | 120 (≈ 214 µM) | 18 (≈ 32.2 µM) | 1.3 (≈ 2.32 µM) |
| Cc1ccc(OCc2cc(C)c3c(c2)CCN(C2CCOCC2)C3)c(-c2csc(N3CC[C@@]4(C(=O)O)C[C@H]4C3)n2)c1 [Compound 123] | 10 | <24 | 120 (≈ 209 µM) | 32 (≈ 55.8 µM) | 3.3 (≈ 5.75 µM) |
| Cc1ccc(OCc2cc(C)c3c(c2C)CCN(C2CCOCC2)C3)c(-c2csc(N3CC[C@@]4(C(=O)O)C[C@H]4C3)n2)c1 [Compound 125] | 23 | <24 | 140 (≈ 238 µM) | 20 (≈ 34 µM) | 1.2 (≈ 2.04 µM) |
| Cc1ccc(OCc2cc(C)c3c(c2C)CCN(C2CCOC2)C3)c(-c2csc(N3CC[C@@]4(C(=O)O)C[C@H]4C3)n2)c1 (some centres unmarked) [Compound 129] | 6 | <24 | 120 (≈ 209 µM) | 7.7 (≈ 13.4 µM) | 0.49 (≈ 0.854 µM) |
| Cc1ccc(OCc2ccc3c(c2C)CCN(C2CCOCC2)CC3)c(-c2csc(N3CC[C@@]4(C(=O)O)C[C@H]4C3)n2)c1 [Compound 130] | 6 | <24 | 120 (≈ 204 µM) | 20 (≈ 34 µM) | 2.9 (≈ 4.93 µM) |
| Cc1cccc(-c2csc(N3C[C@@H]4C[C@]4(C(=O)O)C3)n2)c1OCc1ccc2c(c1C)CCN(C1CCOCC1)C2 [Compound 136] | 18 | <24 | 110 (≈ 197 µM) | 76 (≈ 136 µM) | 62 (≈ 111 µM) |
| Cc1cccc(-c2csc(N3C[C@@H]4C[C@]4(C(=O)O)C3)n2)c1OCc1ccc2c(c1C)CCN(C1COC1)C2 [Compound 138] | 18 | <24 | 100 (≈ 188 µM) | 59 (≈ 111 µM) | 65 (≈ 122 µM) |

Results, then the molecule that gave them:

| EC50 [1] [nM] | Metabolic stability (Qh %), % hepatic blood flow [2] [%] | solubility at 24 h (physchem; [3]) [µg/mL] | solubility at 24 h (physchem; [4]) [µg/mL] | solubility at 24 h (physchem; [5]) [µg/mL] | SMILES |
| --- | --- | --- | --- | --- | --- |
| 7 | <24 | 120 (≈ 220 µM) | 38 (≈ 69.6 µM) | 5 (≈ 9.16 µM) | Cc1ccc(OCc2ccc3c(c2)CCN(C2CCOC2)C3)c(-c2csc(N3CC[C@@]4(C(=O)O)C[C@H]4C3)n2)c1 (some centres unmarked) [Compound 114] |
| 4 | 34 | 120 (≈ 209 µM) | 21 (≈ 36.6 µM) | < 0.1 | Cc1ccc(OCc2ccc3c(c2C)CCN(C2CCCOC2)C3)c(-c2csc(N3CC[C@@]4(C(=O)O)C[C@H]4C3)n2)c1 (some centres unmarked) [Compound 118] |
| 6 | <24 | 130 (≈ 220 µM) | 27 (≈ 45.8 µM) | 2.2 (≈ 3.73 µM) | Cc1ccc(OCc2cc(C)c3c(c2)CCN(CC2COCCO2)C3)c(-c2csc(N3CC[C@@]4(C(=O)O)C[C@H]4C3)n2)c1 (some centres unmarked) [Compound 120] |
| 14 | 31 | 120 (≈ 220 µM) | 3.7 (≈ 6.78 µM) | 4.9 (≈ 8.98 µM) | Cc1ccc(OCc2cc(C)c3c(c2)CCN(C2COC2)C3)c(-c2csc(N3CC[C@@]4(C(=O)O)C[C@H]4C3)n2)c1 [Compound 124] |
| 44 | <24 | 130 (≈ 232 µM) | 2.8 (≈ 5 µM) | 1.8 (≈ 3.22 µM) | Cc1ccc(OCc2cc(C)c3c(c2C)CCN(C2COC2)C3)c(-c2csc(N3CC[C@@]4(C(=O)O)C[C@H]4C3)n2)c1 [Compound 126] |
| 3 | <24 | 130 (≈ 215 µM) | 17 (≈ 28.2 µM) | 0.77 (≈ 1.28 µM) | Cc1ccc(OCc2cc(C)c3c(c2C)CCN(CC2COCCO2)C3)c(-c2csc(N3CC[C@@]4(C(=O)O)C[C@H]4C3)n2)c1 (some centres unmarked) [Compound 127] |
| 9 | <24 | 120 (≈ 204 µM) | 6.3 (≈ 10.7 µM) | 0.3 (≈ 0.51 µM) | Cc1ccc(OCc2cc(C)c3c(c2C)CCN(C2CCCOC2)C3)c(-c2csc(N3CC[C@@]4(C(=O)O)C[C@H]4C3)n2)c1 (some centres unmarked) [Compound 128] |
| 22 | 46 | 110 (≈ 182 µM) | 23 (≈ 38.1 µM) | 3.1 (≈ 5.13 µM) | Cc1ccc(OCc2ccc3c(c2C)CCN(CC2COCCO2)CC3)c(-c2csc(N3CC[C@@]4(C(=O)O)C[C@H]4C3)n2)c1 (some centres unmarked) [Compound 132] |
| 18 | 43 | 90 (≈ 157 µM) | 12 (≈ 20.9 µM) | 1.6 (≈ 2.79 µM) | Cc1ccc(OCc2ccc3c(c2C)CCN(C2CCOC2)CC3)c(-c2csc(N3CC[C@@]4(C(=O)O)C[C@H]4C3)n2)c1 (some centres unmarked) [Compound 133] |
| 11 | 53 | 110 (≈ 187 µM) | 8.5 (≈ 14.5 µM) | 0.95 (≈ 1.62 µM) | Cc1ccc(OCc2ccc3c(c2C)CCN(C2CCCOC2)CC3)c(-c2csc(N3CC[C@@]4(C(=O)O)C[C@H]4C3)n2)c1 (some centres unmarked) [Compound 134] |
| 39 | <24 | 100 (≈ 183 µM) | 70 (≈ 128 µM) | 56 (≈ 103 µM) | Cc1cccc(-c2csc(N3C[C@@H]4C[C@]4(C(=O)O)C3)n2)c1OCc1ccc2c(c1)CCN(C1CCOCC1)C2 [Compound 135] |
| 67 | 32 | 100 (≈ 189 µM) | 71 (≈ 134 µM) | 51 (≈ 96.3 µM) | Cc1cccc(-c2csc(N3C[C@@H]4C[C@]4(C(=O)O)C3)n2)c1OCc1ccc2c(c1C)CCN(C1CCC1)C2 [Compound 137] |
| 7 | <24 | 96 (≈ 181 µM) | 58 (≈ 109 µM) | 59 (≈ 111 µM) | Cc1cc(COc2c(C)cccc2-c2csc(N3C[C@@H]4C[C@]4(C(=O)O)C3)n2)cc2c1CN(C1COC1)CC2 [Compound 139] |
| 5 | <24 | 100 (≈ 179 µM) | 73 (≈ 130 µM) | 60 (≈ 107 µM) | Cc1cc(COc2c(C)cccc2-c2csc(N3C[C@@H]4C[C@]4(C(=O)O)C3)n2)cc2c1CN(C1CCOCC1)CC2 [Compound 140] |
| 34 | <24 | 110 (≈ 203 µM) | 38 (≈ 70 µM) | 81 (≈ 149 µM) | Cc1cccc(-c2csc(N3C[C@@H]4C[C@]4(C(=O)O)C3)n2)c1OCc1cc(C#N)c2c(c1)CCN(C1COC1)C2 [Compound 141] |
